Measurements from patent publication US7101878B1 (Agouron Pharmaceuticals, Inc., priority 1998, dated 2006).
Like-named read-outs stand apart in the source and are kept apart here.

Target: T1, human GnRH receptor (Homo sapiens, UniProt P30968)
T1 construct: expressed in transfected cells; host or cells: HEK 293 (hGnRH-R/293, from Dr. Stuart Sealfon)
T1 sequence (P30968 1-328): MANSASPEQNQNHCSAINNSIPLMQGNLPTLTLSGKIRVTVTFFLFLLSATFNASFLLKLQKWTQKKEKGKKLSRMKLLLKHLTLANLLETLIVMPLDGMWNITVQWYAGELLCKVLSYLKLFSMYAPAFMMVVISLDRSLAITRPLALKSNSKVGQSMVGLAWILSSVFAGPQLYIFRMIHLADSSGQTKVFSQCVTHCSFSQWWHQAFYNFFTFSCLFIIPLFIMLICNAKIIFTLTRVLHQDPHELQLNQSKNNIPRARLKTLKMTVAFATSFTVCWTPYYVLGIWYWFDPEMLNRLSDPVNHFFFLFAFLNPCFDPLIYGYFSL
Assay: Radioligand binding, 125I-GnRH-A displacement, membranes of HEK 293 cells with human GnRH receptor
Conditions: for IC50: read-out: hGnRH IC50
Procedure: All compounds were diluted in 1% DMSO (final assay concentration) in binding assay buffer. […] Reactions were terminated by rapid filtration onto 96-well Packard GF/C filters soaked in 0.1% polyethyleneimine. Filters were washed three times with PBS buffer, dried and counted on a Packard Topcount by liquid scintillation counting.
Assay conditions were identical for assessing compound activities at other species. […] IC50 values for control peptides and test compounds were calculated utilizing GraphPad Prism™ software.
Crude compounds were tested using the competitive radioligand binding assay described above.
The reaction mixture was vortexed and incubated for 1 min at room temperature. After one min, the mixture was vortexed and allowed to incubate for an additional minute. 2 ml of 0.5 M acetic acid/1% BSA was added to the reaction tube and the mixture was added to a C18 Sep-Pak cartridge. The cartridge was washed with subsequent washes of 5 ml H2O and 5 ml 0.5M acetic acid and then eluted with 5×1 ml of 60% CH3CN/40% 0.5M acetic acid. The eluate was diluted with 3× volume of HPLC buffer A (0.1% TFA in H2O) and loaded onto a C18 column. The iodinated product was eluted over 20-25 min with a gradient of 25-100% CH3CN containing 0.1% TFA. The radioactive fractions (750 ed/fraction) are collected into clean polypropylene tubes containing 100 μl of 10% BSA. Fractions were assessed for biological activity by radioligand binding.
S%R is the substrate remaining.

[1] = 1 uM, read-out: % Inhib. @ 1 uM hGnRH
[2] = 1 h, repeat of % Inhib. at 1 uM, read-out: Repeats @ 1 uM hGnRH
[3] = repeat, read-out: Repeats @ 10 uM hGnRH (% inhib.)
[4] = read-out: % inhib. @ 10 uM hGnRH

SMILES | inhibition at 1 µM [1] | inhibition at 1 µM [2] | IC50 | further results
Cc1cc2c(cc1Cc1ccc(C(=O)NC(C)(C)Cc3ccccc3)o1)C(C)(C)CCC2(C)C | 38% | 39% | – | –
Cc1cc2c(cc1Cc1ccc(C(=O)N(C)C(C)Cc3ccccc3)o1)C(C)(C)CCC2(C)C (centres unmarked) | 15% | 17% | – | –
Cc1cc2c(cc1Cc1ccc(C(=O)NC(C)(C)c3ccccc3)o1)C(C)(C)CCC2(C)C | 28% | 45% | – | –
Cc1cc2c(cc1Cc1ccc(C(=O)N(C)CC(O)c3ccccc3)o1)C(C)(C)CCC2(C)C (centres unmarked) | 20% | 22% | – | –
Cc1cc2c(cc1Cc1ccc(C(=O)N(C)CC(O)c3cccc(O)c3)o1)C(C)(C)CCC2(C)C (centres unmarked) | -2% | 9% | – | –
Cc1cc2c(cc1Cc1ccc(C(=O)NC(C#N)c3ccc(F)cc3)o1)C(C)(C)CCC2(C)C (centres unmarked) | 2% | 4% | – | –
Cc1cc2c(cc1Cc1ccc(C(=O)NCc3ccc(F)cc3Cl)o1)C(C)(C)CCC2(C)C | 27% | 48% | – | –
Cc1cc2c(cc1Cc1ccc(C(=O)NCC(O)c3ccc(O)c(O)c3)o1)C(C)(C)CCC2(C)C (centres unmarked) | -26% | 11% | – | –
Cc1cc2c(cc1Cc1ccc(C(=O)N3CCN(c4cccc(O)c4)CC3)o1)C(C)(C)CCC2(C)C | -1% | -3% | – | –
Cc1cc2c(cc1Cc1ccc(C(=O)NCc3c(CO)cnc(C)c3O)o1)C(C)(C)CCC2(C)C | -2% | 6% | – | –
Cc1cc2c(cc1Cc1ccc(C(=O)NCC(C)(c3ccccc3)c3ccccc3)o1)C(C)(C)CCC2(C)C | 16% | 22% | – | –
Cc1cc2c(cc1Cc1ccc(C(=O)NCCc3ccc(O)c(O)c3)o1)C(C)(C)CCC2(C)C | -10% | -3% | – | –
COc1ccc(OC)c(C(O)C(C)NC(=O)c2ccc(Cc3cc4c(cc3C)C(C)(C)CCC4(C)C)o2)c1 (centres unmarked) | -6% | 14% | – | –
Cc1cc2c(cc1Cc1ccc(C(=O)N[C@@H](CO)Cc3c[nH]cn3)o1)C(C)(C)CCC2(C)C | -17% | -27% | – | –
Cc1cc2c(cc1Cc1ccc(C(=O)N3CCc4cc(O)c(O)cc4C3C)o1)C(C)(C)CCC2(C)C (centres unmarked) | -13% | -5% | – | –
Cc1cc2c(cc1Cc1ccc(C(=O)N(C)C(C)C(O)c3ccc(O)cc3)o1)C(C)(C)CCC2(C)C (centres unmarked) | -10% | -13% | – | –
Cc1cc2c(cc1Cc1ccc(C(=O)NC(C)C(O)c3ccccc3)o1)C(C)(C)CCC2(C)C (centres unmarked) | 12% | 14% | – | –
Cc1cc2c(cc1Cc1ccc(C(=O)N[C@H](C)[C@H](O)c3ccc(O)cc3)o1)C(C)(C)CCC2(C)C | -2% | 6% | – | –

SMILES | inhibition at 1 µM [1] | inhibition at 1 µM [2] | IC50 | further results
Cc1cc2c(cc1Cc1ccc(C(=O)N[C@@H](CO)Cc3ccc(O)cc3)o1)C(C)(C)CCC2(C)C | -12% | -9% | – | –
Cc1cc2c(cc1Cc1ccc(C(=O)Nn3c(O)nnc3-c3ccccc3)o1)C(C)(C)CCC2(C)C | – | – | – | inhibition at 10 µM [3]: -25%; inhibition at 10 µM [4]: -25%
Cc1cc2c(cc1Cc1ccc(C(=O)NN3C(=O)c4ccccc4C3=O)o1)C(C)(C)CCC2(C)C | – | – | – | inhibition at 10 µM [3]: -20%; inhibition at 10 µM [4]: -15%
Cc1cc2c(cc1Cc1ccc(C(=O)Nn3c(O)nnc3-c3ccncc3)o1)C(C)(C)CCC2(C)C | – | – | – | inhibition at 10 µM [3]: -28%; inhibition at 10 µM [4]: -17%
Cc1ccc2nc(C)n(NC(=O)c3ccc(Cc4cc5c(cc4C)C(C)(C)CCC5(C)C)o3)c(=O)c2c1 | – | – | – | inhibition at 10 µM [3]: -4%; inhibition at 10 µM [4]: -4%
Cc1cc2c(cc1Cc1ccc(C(=O)Nn3c(N)nc(C(F)(F)F)cc3=O)o1)C(C)(C)CCC2(C)C | – | – | – | inhibition at 10 µM [3]: -5%; inhibition at 10 µM [4]: -10%
COc1cc(OC)c(NC(=O)c2ccc(C(O)c3cc4c(cc3C)C(C)(C)CCC4(C)C)o2)c(OC)c1 (centres unmarked) [AXC- 07047] | – | – | 1.41 µM | –
COc1cc(C)c(Cl)c(C)c1Cc1ccc(C(N)=O)o1 [AXC- 07450] | – | – | > 10 µM | –
Cc1cc2c(cc1Cc1ccc(C(=O)NCCCCCCNC(=O)c3ccc(Cc4cc5c(cc4C)C(C)(C)CCC5(C)C)o3)o1)C(C)(C)CCC2(C)C [Compound 28] | – | – | > 10 µM | –
Cc1cc2c(cc1Cc1ccc(C(=O)Nc3ccc(S(=O)(=O)Nc4nccs4)cc3)o1)C(C)(C)CCC2(C)C [Compound 29] | – | – | 1.42 µM | –
Cc1cc2c(cc1Cc1ccc(C(=O)N3CCN(c4ncccn4)CC3)o1)C(C)(C)CCC2(C)C [Compound 30.5] | – | – | 5.03 µM | –
N=C(N)NC[C@H]1CC[C@H](CNC(=O)c2ccc(Cc3ccccc3)o2)CC1 [Compound 34] | – | – | > 10 µM | –
Cc1cc2c(cc1Cc1ccc(C(=O)NCC3CCN(C(=N)N)CC3)o1)C(C)(C)CCC2(C)C [Compound 35] | – | – | 1.2 µM | –
Cc1cnc(CNC(=O)c2cccc(Cc3cc4c(cc3C)C(C)(C)CCC4(C)C)c2)cn1 [Compound 37.5] | – | – | 7.8 µM | –
CNC(=O)c1ccc(Cc2cc3c(cc2C)C(C)(C)CCC3(C)C)o1 [Compound 37] | – | – | 2.1 µM | –
COCCNC(=O)c1ccc(Cc2cc3c(cc2C)C(C)(C)CCC3(C)C)o1 [Compound 40] | – | – | 0.53 µM | –
Cc1cc2c(cc1Cc1ccc(C(=O)NCc3ccc(C(C)(C)C)cc3)o1)C(C)(C)CCC2(C)C [Compound 49] | – | – | 3.7 µM | –

More lines, main results first:

inhibition at 1 µM [1] | inhibition at 1 µM [2] | IC50 | SMILES | further results
21% | 22% | – | Cc1cc2c(cc1Cc1ccc(C(=O)NC(C)(C)Cc3ccc(F)cc3)o1)C(C)(C)CCC2(C)C | –
16% | 7% | – | Cc1cc2c(cc1Cc1ccc(C(=O)NC(CO)CSCc3ccccc3)o1)C(C)(C)CCC2(C)C (centres unmarked) | –
17% | 23% | – | Cc1cc2c(cc1Cc1ccc(C(=O)NC(CCO)c3ccccc3)o1)C(C)(C)CCC2(C)C (centres unmarked) | –
12% | 8% | – | CCN(CCc1ccccn1)C(=O)c1ccc(Cc2cc3c(cc2C)C(C)(C)CCC3(C)C)o1 | –
-8% | 3% | – | Cc1cc2c(cc1Cc1ccc(C(=O)NC(c3ccccc3)c3ccc(Cl)cc3)o1)C(C)(C)CCC2(C)C (centres unmarked) | –
-10% | -15% | – | Cc1cc2c(cc1Cc1ccc(C(=O)NC(CO)[C@H](O)c3ccc([N+](=O)[O-])cc3)o1)C(C)(C)CCC2(C)C (some centres unmarked) | –
25% | 28% | – | Cc1cc2c(cc1Cc1ccc(C(=O)NCC(O)c3ccc(O)cc3)o1)C(C)(C)CCC2(C)C (centres unmarked) | –
– | – | 1.01 µM | CCN(CC)S(=O)(=O)c1ccc(OC)c(NC(=O)c2ccc(Cc3cc4c(cc3C)C(C)(C)CCC4(C)C)o2)c1 [Compound 26] | –
– | – | > 10 µM | Cc1cc2c(cc1Cc1ccc(C(=O)NCCCNC(=O)c3ccc(Cc4cc5c(cc4C)C(C)(C)CCC5(C)C)o3)o1)C(C)(C)C=CC2(C)C [Compound 27] | –
– | – | 1.35 µM | Cc1cc2c(cc1Cc1ccc(C(=O)Nc3ccc(N4CCOCC4)cc3)o1)C(C)(C)CCC2(C)C [Compound 30] | –
– | – | 3.8 µM | CCOC(=O)Cc1ccc(NC(=O)c2ccc(Cc3cc4c(cc3C)C(C)(C)CCC4(C)C)o2)cc1 [Compound 32] | –
– | – | 5.3 µM | Cc1cc2c(cc1Cc1ccc(C(=O)Nc3ccc(CC(=O)O)cc3)o1)C(C)(C)CCC2(C)C [Compound 33] | –
– | – | > 10 µM | Cc1cc2c(cc1Cc1ccc(C(=O)N3C[C@@H]4CCCC[C@@H]4CC3C(=O)NC(C)(C)C)o1)C(C)(C)CCC2(C)C (some centres unmarked) [Compound 38.5] | –
– | – | > 10 µM | Cc1cnc(CNC(=O)c2ccc(Cc3ccccc3)o2)cn1 [Compound 45] | –
